Source: the supplement of paper PMC11451515

System: NOMO1
Test: cell viability relative to DMSO control; higher = less cytotoxic
Settings: 48 h
Method in brief: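 Cells were incubated for 48 h at 37°C before CellTiter-Glo One luminescence was read. The cells were NOMO1 or SEM (500 cells/well) or P12-Ichikawa (1000 cells/well) leukemia cells, adapted for at least four passages in each medium and seeded in 1536-well plates (5 μl). Dosing used library compounds in DMSO applied by pin over 11 threefold points, 47 μM to 0.79 nM. Viability is the per-plate percentage of DMSO wells, with cell-free wells as background.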

[1] = RPMI 5 mM glucose + 10% FBS, 0.000781 µM
[2] = RPMI 5 mM glucose + 10% FBS, 0.00234 µM
[3] = RPMI 5 mM glucose + 10% FBS, 0.00702 µM
[4] = RPMI 5 mM glucose + 10% FBS, 0.0211 µM
[5] = RPMI 5 mM glucose + 10% FBS, 0.0632 µM
[6] = RPMI 5 mM glucose + 10% FBS, 0.19 µM
[7] = RPMI 5 mM glucose + 10% FBS, 0.569 µM
[8] = RPMI 5 mM glucose + 10% FBS, 1.71 µM
[9] = RPMI 5 mM glucose + 10% FBS, 5.12 µM
[10] = RPMI 5 mM glucose + 10% FBS, 15.4 µM
[11] = RPMI 5 mM glucose + 10% FBS, 46.1 µM
[12] = HPLM + 10% dialyzed FBS, 0.000781 µM
[13] = HPLM + 10% dialyzed FBS, 0.00234 µM
[14] = HPLM + 10% dialyzed FBS, 0.00702 µM
[15] = HPLM + 10% dialyzed FBS, 0.0211 µM
[16] = HPLM + 10% dialyzed FBS, 0.0632 µM
[17] = HPLM + 10% dialyzed FBS, 0.19 µM
[18] = HPLM + 10% dialyzed FBS, 0.569 µM
[19] = HPLM + 10% dialyzed FBS, 1.71 µM
[20] = HPLM + 10% dialyzed FBS, 5.12 µM
[21] = HPLM + 10% dialyzed FBS, 15.4 µM
[22] = HPLM + 10% dialyzed FBS, 46.1 µM
[23] = RPMI 5 mM glucose + 10% dialyzed FBS, 0.000781 µM
[24] = RPMI 5 mM glucose + 10% dialyzed FBS, 0.00234 µM
[25] = RPMI 5 mM glucose + 10% dialyzed FBS, 0.00702 µM
[26] = RPMI 5 mM glucose + 10% dialyzed FBS, 0.0211 µM
[27] = RPMI 5 mM glucose + 10% dialyzed FBS, 0.0632 µM
[28] = RPMI 5 mM glucose + 10% dialyzed FBS, 0.19 µM
[29] = RPMI 5 mM glucose + 10% dialyzed FBS, 0.569 µM
[30] = RPMI 5 mM glucose + 10% dialyzed FBS, 1.71 µM
[31] = RPMI 5 mM glucose + 10% dialyzed FBS, 5.12 µM
[32] = RPMI 5 mM glucose + 10% dialyzed FBS, 15.4 µM
[33] = RPMI 5 mM glucose + 10% dialyzed FBS, 46.1 µM

Compound | cell viability [1] [%] | cell viability [2] [%] | cell viability [3] [%] | cell viability [4] [%] | cell viability [5] [%] | cell viability [6] [%] | cell viability [7] [%] | cell viability [8] [%] | cell viability [9] [%] | cell viability [10] [%] | cell viability [11] [%] | cell viability [12] [%] | cell viability [13] [%] | cell viability [14] [%] | cell viability [15] [%] | cell viability [16] [%] | cell viability [17] [%] | cell viability [18] [%] | cell viability [19] [%] | cell viability [20] [%] | cell viability [21] [%] | cell viability [22] [%] | cell viability [23] [%] | cell viability [24] [%] | cell viability [25] [%] | cell viability [26] [%] | cell viability [27] [%] | cell viability [28] [%] | cell viability [29] [%] | cell viability [30] [%] | cell viability [31] [%] | cell viability [32] [%] | cell viability [33] [%]
Nc1ccn([C@H]2CS[C@@H](CO)O2)c(=O)n1 | 112 | 122 | 144 | 133 | 135 | 138 | 139 | 148 | 133 | 140 | 145 |  |  |  |  |  |  |  |  |  |  |  |  |  |  |  |  |  |  |  |  |  | 
CN1CCN(CCCN2c3ccccc3Sc3ccc(Cl)cc32)CC1.O=C(O)/C=C\C(=O)O.O=C(O)/C=C\C(=O)O | 97.8 | 106 | 112 | 107 | 109 | 101 | 108 | 81.9 | 58.3 | 24.2 | 28.4 | 112 | 123 | 112 | 111 | 124 | 110 | 106 | 47.9 | 42.8 | 29.9 | 32.1 | 94.7 | 104 | 127 | 106 | 117 | 115 | 116 | 68.9 | 73 | 28.3 | 31.9
Nc1ccc([S+](=O)([O-])Nc2ncccn2)cc1 |  |  |  |  |  |  |  |  |  |  |  | 115 | 121 | 130 | 126 | 136 | 127 | 129 | 138 | 142 | 129 | 120 |  |  |  |  |  |  |  |  |  |  | 
Oc1ccc(-c2ccc(-c3cc(Nc4cccc(CNC5CC5)c4)[nH]n3)cc2)c(O)c1 | 104 | 99 | 103 | 97.4 | 115 | 109 | 114 | 96.7 | 49.5 | 27.8 | 30.8 | 93.9 | 104 | 108 | 116 | 127 | 116 | 102 | 93.4 | 41.4 | 40 | 60.6 | 99.3 | 94.4 | 106 | 109 | 107 | 102 | 119 | 107 | 71.1 | 26 | 31.1
CC(C)CC(N(C)C)C1(c2ccc(Cl)cc2)CCC1 (stereo not given) | 110 | 113 | 113 | 118 | 117 | 123 | 119 | 116 | 98.2 | 94.1 | 99 | 118 | 136 | 120 | 119 | 116 | 117 | 116 | 113 | 107 | 94.5 | 87 | 109 | 110 | 124 | 115 | 122 | 119 | 120 | 112 | 111 | 103 | 95.1
C=CC(=O)Nc1ccc2ncnc(Nc3ccc(OCc4cccc(F)c4)c(Cl)c3)c2c1 | 92.6 | 91.8 | 114 | 115 | 107 | 95.8 | 101 | 93.3 | 13.6 | 14.7 | 9.53 | 82.4 | 93.3 | 99.9 | 96.7 | 105 | 99.4 | 98.1 | 72.4 | 22.2 | 17.1 | 12.6 | 92.9 | 85.7 | 93.5 | 91.3 | 104 | 92.6 | 93 | 94 | 21.4 | 18.3 | 11.8
COc1ccc2[nH]cc(CCNC(C)=O)c2c1 |  |  |  |  |  |  |  |  |  |  |  | 115 | 115 | 125 | 131 | 114 | 129 | 118 | 119 | 131 | 112 | 114 |  |  |  |  |  |  |  |  |  |  | 
Nc1nc(N)c(N=O)c(OCC2CCCCC2)n1 | 90.3 | 90.2 | 93 | 93.5 | 87.9 | 94 | 91.8 | 76.9 | 61.6 | 48 | 28.2 | 89.8 | 104 | 90.2 | 116 | 94.5 | 99 | 99.5 | 62.5 | 46.9 | 38.9 | 23.4 | 76.6 | 91.8 | 78.8 | 87.9 | 97.9 | 96.9 | 91.2 | 76.8 | 66.8 | 60.4 | 33.8
C[C@H]1Oc2cc(cnc2N)-c2c(nn(C)c2C#N)CN(C)C(=O)c2ccc(F)cc21 | 106 | 132 | 125 | 108 | 119 | 126 | 123 | 123 | 131 | 106 | 101 |  |  |  |  |  |  |  |  |  |  |  |  |  |  |  |  |  |  |  |  |  | 
CCCCCCCCCCCC/1=C(O)/C(=O)/C=C(O)\C1=O |  |  |  |  |  |  |  |  |  |  |  | 112 | 116 | 142 | 127 | 154 | 151 | 51.1 | 39.4 | 40.9 | 35.5 | 28.6 |  |  |  |  |  |  |  |  |  |  | 
